Reference: US5536623A, “Method of producing highly water-soluble cyclodextrin complex” (Takeda Chemical Industries, Ltd., priority 1992, dated 1996)
Like-named read-outs stand apart in the source and are kept apart here.

What was measured:
[1] = format: physicochemical; conditions: water
Method: To a 5 ml aqueous solution containing 1000 mg of maltosyl-β-cyclodextrin (hereinafter abbreviated G2βCyD) was added 250 mg of 6-O-(N-chloroacetylcarbamoyl) fumagillol (hereinafter abbreviated TNP-470), followed by stirring at 25° C. for 8 hours to obtain a solution. The undissolved portion of TNP-470 was filtered out, and the filtrate was placed in a vial and lyophilized in accordance with a conventional method to yield a powder. To the entire amount of the powder thus obtained, 5 ml of water was added to yield a uniform aqueous solution. Separately, in accordance with the conventional method, 110 mg of G2βCyD was dissolved in 5 ml of water; 250 mg of TNP-470 was added to this solution, followed by stirring at 25° C. for 8 hours. Then, the solution was filtered. The above uniform solution and the filtered solution were assayed for TNP-470 by high performance liquid chromatography (HPLC). Also, the saturation solubility of TNP-470 alone was determined by HPLC.
(§1) Column: ODS, YMC-Pack A-312 (Yamamura Chemical Laboratories)
(§2) Mobil phase: water-acetonitrile (1:1 v/v)
(§3) Detector: Ultra violet detector (wavelength: 210 nm)

[2] = format: physicochemical; conditions: water; remark: listed apart in the source
Method: as §1, §2, §3
To a 5 ml aqueous solution containing 500 mg of glucosyl-β-cyclodextrin (hereinafter abbreviated G1[CyD) was added 250 mg of TNP-470, followed by stirring at 25° C. for 8 hours to obtain a solution. The resulting aqueous solution was filtered and lyophilized in accordance with the standard method to yield a powder. To the entire amount of the powder thus obtained, 5 ml of water was added to yield a uniform aqueous solution. Separately, in accordance With the conventional method, 100 mg of G1βCyD was dissolved in 5 ml of water; 250 mg of TNP-470 was added to this solution, followed by stirring at 25° C. for 8 hours. Then, the solution was filtered. The above uniform solution and the filtered solution were assayed for TNP-470 by HPLC method as described in Comparative Example 1. Also, the saturation solubility of TNP-470 alone was determined by HPLC.

[3] = Storage stability at 40° C., TNP-470 quantified by HPLC (Example 6); format: physicochemical; conditions: powder, 730 h
Method: as §1, §2, §3
To a 5 ml aqueous solution containing 726 mg of maltosyl-β-cyclodextrin was added 100 mg of TNP-470, followed by stirring at 25° C. for 180 minutes to yield a solution. This aqueous solution was filtered, and 5 ml of the filtrate was placed in a vial and lyophilized to yield a powder. The stability of this powder and that of TNP-470 alone were compared after storage at 40° C. for i month. TNP-470 was quantified by HPLC.

SMILES: CO[C@@H]1[C@H](OC(=O)NC(=O)CCl)CC[C@]2(CO2)[C@H]1[C@@]1(C)O[C@@H]1CC=C(C)C [TNP-470, 6-O-(N-chloroacetylcarbamoyl) fumagillol]
- Comparison of Solubility (TNP-470) [1]: 1900 µg/mL
- Comparison of Solubility (TNP-470) [2]: 1900 µg/mL
- Stability, Percent residence (TNP-470) [3]: 68%
